The values that follow come from US7932239B2, “Methods of and compositions for reducing neuronal cell death” (Wisconsin Alumni Research Foundation, priority 2005, dated 2011).

Structures are written as SMILES. Some results are limits rather than exact numbers.

For experiment [1], the system named is retinal ganglion cells (RGCs). Nature of the experiment: Viability of acutely axotomized retinal ganglion cells in culture (DAPI retrograde labeling, calcein-AM staining) at 72 hours. Format: cell-based, rat. Particulars: for rescue of RGCs (in words): at 100 μM. Here is the method: DAPI binds to nuclear DNA and fluoresces under UV light. At postnatal days eleven to thirteen, the animals were sacrificed by decapitation, the eyes enucleated, and the retinas dissected in Hank's balanced salt solution (HBSS). After two incubations in enzyme solution containing papain (3.7 U/ml), each for 30 minutes at 37° C., the retinas were gently triturated with a Pasteur pipette and plated on poly-L-lysine-coated 96-well flat-bottomed tissue culture plates (0.32 cm^2 surface area/well) at a density of approximately 2000 cells/mm^2. The cells were cultured for 72 hours in Neurobasal-A, B27 supplement lacking antioxidants in a humidified 5% CO2 incubator at 37° C.
Retinal Ganglion Cell Identification and Counting: RGCs were identified by the presence of DAPI, which appears blue when viewed with appropriate filters under epifluorescence. Cell viability was determined by metabolism of calcein-AM, which produces a green fluorescence when viewed with fluorescein filters. Cells were incubated in a 1 μM solution of calcein-AM in phosphate-buffered saline (PBS) for 30 minutes, after which the medium was replaced with fresh PBS. Wells were counted in duplicate or in triplicate.
Statistical Analysis: All RGC viability calculations were normalized to the control (no treatment) condition by dividing the mean number of living RGCs in an experimental condition by the mean in controls. Comparisons were by unpaired t-test.

Experiment [2] deals with retinal ganglion cells (RGCs). To be noted: previous studies, cited from earlier work.
The subject of experiment [3] is RGCs. To be noted: injected intravitreally into adult rats, previous studies; cited from earlier work.
Experiment [4] concerns RGCs. To be noted: after one to twelve weeks; written in present tense.
From the text: Unilateral experimental glaucoma is induced in the rat using the Quigley protocol for laser ablation of the trabecular meshwork and of the circumferential episcleral vessels. […] The animals are anesthetized as in Example 2. A diode laser at 532 nm (0.2-0.4 watts and 0.3-0.7 second duration, depending on degree of pigmentation) is used to administer laser treatment at the trabecular meshwork and at the episcleral veins draining the perilimbal vessel plexus of vessel. In case a milder IOP rise is required, animals can be treated only at the trabecular meshwork. The laser treatment is repeated at 1 week if the IOP difference between the treated eye and the untreated eye is less than 6 mm Hg. Following laser treatment, sterile drug (i.e. PB1 or PB2) or control (BSS) is administered.
IOP is measured by putting a drop of 0.5% proparacaine in the eye, gently cradling the rat and touching the anesthetized eye with a Tonopen tonometer tip for a fraction of a second, usually for 3±2 times, more if the standard deviation is high. […] Depending on the experiment, the IOP is initially measured daily and then weekly.
After one to twelve weeks animals are sacrificed and RGC counts are performed as described in Example 2.
Experiment [5] deals with RGCs. The experiment in a line: RGC death after optic nerve crush in vivo, intravitreal injection, RGC density in retinal whole mounts. More on the design: species or system rat. Particulars: 7 to 14 days after optic nerve crush, written in present tense. The protocol: Optic Nerve Crush Surgery and Intravitreal Injections: Surgeries are conducted on adult (i.e. eight to twelve week old) rats that have previously received 1,1′-dioctadecyl-3,3,3′,3′-tetramethylindocarbocyanine (DiI) injections. All surgeries are done aseptically and are performed on the left eye only. Animals are anesthetized with a mixture of ketamine and xylazine. A limited lateral canthotomy is performed. The conjunctiva is then incised at the limbus and the subtenons space bluntly dissected posteriorly. […] The muscle cone is then entered and the optic nerve exposed. A longitudinal incision is made along the meningeal sheath to expose the optic nerve axons and to avoid disturbing the retinal blood supply. The axons of the optic nerve are then crushed with blunt forceps for 5 seconds 2 mm posterior to the globe under direct visualization. […]
RGC Density Determination: Retinal wholemounts are imaged with an Axiocarn HRc digital camera attached to a Zeiss Axiophot fluorescent microscope. […] The density of RGCs/mm^2 is determined by counting labeled DiI cells in three areas per retinal quadrant at three different eccentricities of the retinal radius for a total of twelve regions per retina. Cells positive for both DiI and BSL-I, as determined by bright yellow labeling when DiI (red) and BSL-I (green) images are merged, are subtracted from the total DiI count. […]

Where [6] appears, read: at 1 μM and 100 μM, 72 hours, p<0.05.

Turning to `O=C(O)c1ccc(P(c2ccccc2)c2ccccc2)cc1` [4DPBA, 4-(diphenylphosphino)benzoic acid], the “relative RGC survival (compared to control)” value (from here on “relative RGC survival”) in experiment [1] (1 μM, 72 hours) is given as 183±19%. The “neuroprotection of RGCs (in words)” value in experiment [1] (setting [6]) is reported as “neuroprotection”.
Take `O[C@H](CS)[C@H](O)CS` (racemic) [DTT, dithiothreitol]: the “effectiveness at nanomolar concentrations (in words)” value in experiment [2] is “not effective”.
As to `O=C(O)CCP(CCC(=O)O)CCC(=O)O` [TCEP, tris-(2-carboxyethyl) phosphine], the “rescue of RGCs (in words)” value in experiment [1] (72 hours) is recorded as “mildly rescued RGCs”. Also, the “RGC death after optic nerve crush (in words)” value in experiment [3] is on record as “inhibited RGC death”. In experiment [2], the “effectiveness at nanomolar concentrations (in words)” value is recorded as “not effective” and the “concentration required for RGC neuroprotection” value is about 100 µM.
Take `[BH3-][P+](CCC(=O)OC)(CCC(=O)OC)c1ccccc1` [PB1, bis(3-propionic acid methyl ester)phenylphosphine borane complex]: in experiment [1] (1 nM, 72 hours after axotomy), the “relative RGC survival” value is 174±12%. The “neuroprotection of RGCs (in words)” value in experiment [1] (at picomolar concentrations, 72 hours) was “highly effective”. Besides, the “concentration at which neuroprotective for RGCs (lowest)” value (“concentration at which neuroprotective” below) in experiment [1] (dose response, 72 hours) is on record as at least 1 nM. The “RGC cell death compared to controls (in words)” value in experiment [4] is listed as “attenuated”. The “RGC density compared to controls (in words)” value in experiment [5] was “greater RGC density”.
In the case of `[BH3-][P+](CCC(=O)OC)(c1ccccc1)c1ccccc1` [PB2, (3-propionic acid methyl ester)diphenylphosphine borane complex], in experiment [1] (10 pM, 72 hours after axotomy), the “relative RGC survival” value is 180±10%. Further, the “concentration at which neuroprotective” value in experiment [1] (dose response 1 pM to 100 μM, 72 hours) was at least 0.01 nM. Besides, in experiment [4], the “RGC cell death compared to controls (in words)” value is on record as “attenuated”. Besides, in experiment [5], the “RGC density compared to controls (in words)” value is recorded as “greater RGC density”.
As for `O=C(O)c1ccccc1P(c1ccccc1)c1ccccc1` [2DPBA, 2-(diphenylphosphino)benzoic acid], in experiment [1] (10 nM, 72 hours), the “relative RGC survival” value is recorded as 216±18%. Also, the “neuroprotection of RGCs (in words)” value in experiment [1] (setting [6]) was “significant protection”. Moreover, the “concentration at which neuroprotective” value in experiment [1] (dose response, 72 hours) is on record as 10 nM.
Regarding `O=S(=O)([O-])c1cccc(P(c2cccc(S(=O)(=O)[O-])c2)c2cccc(S(=O)(=O)[O-])c2)c1.[Na+].[Na+].[Na+]` [3BSA, 3,3′,3″-phosphinidynetris(benzene-sulfonic acid) trisodium salt], the “relative RGC survival” value in experiment [1] (100 μM, 72 hours) was 206±6%. Also, the “rescue of RGCs (in words)” value in experiment [1] (72 hours) was “rescue RGCs”.
